From patent US20180078560A1, “USE OF 4-(4-FLUORO-2-METHOXYPHENYL)-N-{3-[(S-METHYLSULFONIMIDOYL)METHYL]PHENYL}-1,3,5-TRIAZIN-2-AMINE FOR TREATING MULTIPLE MYELOMA” (Bayer Pharma Aktiengesellschaft, priority 2015, published 2018) come the findings set out here.

One data set deals with JJN3. Kind of data set: Proliferation assay, JJN3 cell line. Format: cell-based. The note with it: Homo sapiens, JJN-3, Multiple myeloma, after 72 hours of incubation.
The subject of another data set is OPM-2. In words: Proliferation assay, OPM-2 cell line. Format: cell-based. Conditions: Homo sapiens, Multiple myeloma, after 72 hours of incubation.
The test system of the next data set is EJM. Kind of data set: Proliferation assay, EJM cell line. It counts as cell-based. The note with it: Homo sapiens, Multiple myeloma, after 72 hours of incubation.
In another data set the test system is NCI-H929. In words: Proliferation assay, NCI-H929 cell line. It counts as cell-based. The note with it: Homo sapiens, Multiple myeloma, after 72 hours of incubation.
In data set [1] the test system is NCI-H929 multiple myeloma xenograft. In words: In vivo efficacy in NCI-H929 multiple myeloma xenograft model. Also on record: species or system NOD/SCID mice. Conditions: 25 mg/kg/day p.o. once daily. The method, then:
The aim of the present experiments was to assess the in vivo efficacy and tolerability of Compound A′ in monotherapy in the NCI-H929 multiple myeloma xenograft model subcutaneously implanted into NOD/SCID mice.
(§1) In vivo efficacy was determined in female NOD/SCID mice bearing subcutaneous multiple myeloma NCI-H929 xenografts. Compound A′ was assessed at one dose level in monotherapy. Anti-tumour activity and tolerability of the treated group was assessed using the vehicle control group as a reference.
Multiple myeloma tumour fragments, derived from the NCI-H929 cell line, were obtained from xenografts in serial passage in nude mice and placed in PBS containing 10% penicillin/streptomycin. Tumour fragments (one fragment per animal; 3-4 mm edge length) were then subcutaneously implanted in the flank of NOD/SCID recipient mice under isofluorane anaesthesia.
At randomisation, the volume of growing tumours was initially determined. […] The result of the randomisation was documented and maintained with the experimental data Animals not randomised were euthanised. […]
The tumour volumes were determined by two-dimensional measurement with a caliper on the day of randomisation (day 0) and then twice weekly (i.e. on the same days on which mice were weighed). Tumour volumes were calculated according to the formulas: […]
Relative volumes of individual tumours (RTVs) for Day x were calculated by dividing the absolute individual tumour volume on Day x (Tx) by the absolute individual tumour volume of the same tumour on Day 0 (T0) multiplied by 100%:
Anti-tumour activity was evaluated as maximum tumour volume inhibition versus the vehicle control group.
Tumour inhibition for a particular day (T/C in %) was calculated from the ratio of the median RTV values of test versus control groups multiplied by 100.
The minimum (or optimum) T/C% value recorded for a particular test group during an experiment represents the maximum anti-tumour activity for the respective treatment. T/C values were calculated if at least 50% of the randomized animals in the treated group were alive on the day in question. […]

A short description of data set [2]: Tolerability (survival and body weight) in xenograft-bearing mice. It counts as in vivo. The method, then:
as §1
Mortality checks were conducted daily during routine monitoring.
Mice were weighed twice a week. Relative body weights of individual mice in % were calculated by dividing the individual body weight on day X (BWX) by the individual body weight on day 0 (BW0) multiplied by 100 according to the formula: […]
Group median relative body weights were calculated as well, considering only the weights of mice that were alive on the day in question.
The in vivo efficacy and tolerability of BHC's investigational compound Compound A′ was assessed in monotherapy in the NCI-H929 multiple myeloma xenograft model. NCI-H929 tumour fragments, obtained from serial passage in nude mice, were implanted subcutaneously into female NOD/SCID mice. Compound A′ was administered orally at one dose level (25 mg/kg/day) in monotherapy once daily and treatment was started once subcutaneous tumours were established. A vehicle-treated control group was included in each experiment. […] Anti-tumour activity (tumour growth inhibition) and tolerability of treatment group was assessed using the vehicle control group as a reference.

“Also recorded” adds a separate entry of the source.

By IC50 is commonly meant the point on the concentration scale where inhibition reaches its midpoint. As to `COc1cc(F)ccc1-c1ncnc(Nc2cccc(CS(C)(=N)=O)c2)n1` (single isomer, unassigned; (+)) [Compound A′, (+)-4-(4-Fluoro-2-methoxyphenyl)-N-{3-[(S-methylsulfonimidoyl)methyl]phenyl}-1,3,5-triazin-2-amine], the 50% inhibitory concentration (IC50) was found to be 330 nM in the data set on JJN3, 600 nM in the data set with OPM-2, 200 nM with EJM and 237 nM with NCI-H929. Further, the “NCI-H929 tumour growth vs vehicle control group” value in data set [1] (Mann-Whitney-Wilcoxon U-test) is recorded as “significantly reduced; also recorded: significantly attenuated”. In addition, in data set [1] (NCI-H929 xenograft s.c. in female NOD/SCID mice, ratio of median RTV vs vehicle), the “minimum T/C value” was 5.5%. Further, the anti-tumour activity rating entry in data set [1] (NCI-H929 xenograft, rating from optimum T/C) is “High anti-tumour activity”. Further, the “group median BWL (body weight loss)” value in data set [2] (NCI-H929 xenograft-bearing NOD/SCID mice, 25 mg/kg/day p.o. once daily) is listed as no more than 2.7%. In data set [2] (multiple myeloma xenograft-bearing mice, 25 mg/kg/day p.o.), the tolerability profile result was “acceptable tolerability profile”.
